According to US10385041B2, “Terpene derivative-based PAR1 inhibitor, preparation method thereof, and use in treatment of thrombotic diseases” (SHANDONG UNIVERSITY, priority 2015, dated 2019):

Biological target: T1, PAR1 (Homo sapiens, UniProt P25116)
T1 sequence (P25116 22-425): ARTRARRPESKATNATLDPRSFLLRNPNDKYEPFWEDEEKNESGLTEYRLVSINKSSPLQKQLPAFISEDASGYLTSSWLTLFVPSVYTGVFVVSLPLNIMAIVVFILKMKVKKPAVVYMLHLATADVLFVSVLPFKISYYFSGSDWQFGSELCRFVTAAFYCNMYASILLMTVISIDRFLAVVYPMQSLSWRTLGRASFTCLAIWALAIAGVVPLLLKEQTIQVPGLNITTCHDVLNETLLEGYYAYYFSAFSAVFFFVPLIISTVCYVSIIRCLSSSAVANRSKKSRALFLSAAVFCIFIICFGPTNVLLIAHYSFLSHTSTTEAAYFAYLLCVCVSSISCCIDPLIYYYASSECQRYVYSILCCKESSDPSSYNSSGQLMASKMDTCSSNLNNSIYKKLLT
Assay: Calcium ion influx experiment (FLIPR), PAR1 inhibition activity, HEK293-Ga15-PAR1 cell strain, agonist haTRAP
Assay type: cell-based
Settings: HEK293-Ga15-PAR1 cells; for IC50: calcium influx, agonist haTRAP 3 μM, 4-PL fit; for Slope: slope of 4-PL dosage-effect curve, haTRAP 3 μM
Experimental: Embodiment 6: Determination of Biological Activity (PAR1 Inhibition Activity) of the Compound
An HEK293-Ga15-PAR1 cell strain (HD Biosciences stable cell strain) was quickly taken out of a liquid nitrogen tank, and shaken continuously in a 37° C. water bath until it was completely melted. A cell suspension was quickly added into a pre-heated culture medium (90% DMEM+10% FBS+1× Pen/Strep), placed in a centrifuge and centrifuged at 1000 rpm for 10 minutes. A centrifugal tube was taken out, the supernatant was discarded, and the fresh pre-heated culture medium was added into the centrifugal tube, cells were resuspended, and the cell suspension was added into a culture dish and cultured at 37° C. with 5% of CO2.
When the cells reached 80-90% of the culture dish, the cells were gently washed with 0.05% of trypsin-EDTA, part of digestive juice was removed, then the cells were incubated for 2-3 min, the digestion was terminated with the new culture medium, the cells were gently blew with a gun head, and the cells were resuspended. In general, the passage was performed according to 1:4 to 1:8 every 2 to 3 days.
On the day before the experiment, 1× Matrigel (Brand: BD, Cat #: 356230) was added into a clean 384-well cell plate, incubated at 37° C. for 30 minutes, and then inverted and centrifuged at 500 rpm for 30 seconds to remove the coating solution.
The cell precipitate was digested and collected, resuspended in the culture medium to 3×10^5 cells/mL, added into the coated cell plate according to 50 μL per well and then incubated at 37° C. with 5% of CO2 overnight.
On the day of the experiment, the fresh experimental buffer solution and 0.5× Calcium 4 (Brand: Molecular Devices, Cat #: R8141) loading buffer solution were prepared.
The 30 mM DMSO stock solution was first diluted with DMSO to 10 mM, and then diluted 4 times from 10 mM for a total of 10 concentrations. Ten DMSO concentration gradients of the compound were added into the experimental buffer solution at a ratio of 1:20 to prepare a working solution of the compound (5 times the final reaction concentration). After that, the working solution of the compound was transferred into a 384-well compound plate according to the layout in the following drawing for later use.
Positive control: 40 mM DMSO stock solution of the reference compound SCH79797 was diluted to 2 mM;
Negative control: 5% of DMSO prepared from the experimental buffer solution
10 mM DMSO stock of the agonist haTRAP was diluted with the experimental buffer solution to 18 μM (6 times the final reaction concentration 3 μM), and then transferred into a 384-well compound plate, at least at 25 μl/well for later use.
The cell plate incubated overnight was taken out, the cell culture medium was removed by centrifugation at 300 rpm for 30 seconds, 20 μL of freshly prepared 0.5× Calcium 4 loading buffer solution was added into every well and then incubation was performed at 37° C. with 5% of CO2 for 1 hour.
The compound working solution was transferred from the compound plate to the cell plate at 5 μL/well according to the layout, then placed at 37° C. again and incubated with 5% of CO2 for 15 minutes.
The agonist was transferred from the 384-well compound plate (FLIPR) to the cell plate at 5 μL/well according to the program set by FLIPR, and the fluorescent signals in each well of the cell plate were simultaneously read.
The inhibition rate (%) of the compound in each well on the cell plate was calculated according to the fluorescence signal values of the positive control and the negative control on each cell plate. […] The inhibition rates and the corresponding concentrations of the compounds obtained by calculation were introduced into the relevant software for graphing, and the IC50 values of the compounds were calculated according to the 4-PL dosage-effect formula. The IC50 result of the reference compound is also one of standards for testing the quality of every experiment.

Row | IC50 [µM] | Compound | Slope
1 | 7.76 | C[C@]1(CO)[C@H]2CCC3(CO3)[C@@H](/C=C/c3ccc(-c4cccc(F)c4)cn3)[C@]2(C)CC[C@H]1O (stereo partly drawn) [Compound I-1] | 
2 | 7.95 | C[C@]1(CO)[C@H]2CCC3(CO3)[C@@H](/C=C/c3ccc(-c4cccc(C(F)(F)F)c4)cn3)[C@]2(C)CC[C@H]1O (stereo partly drawn) [Compound I-2] | 
3 | 8.91 | C[C@]1(CO)[C@H]2CCC(CO)[C@@H](CCc3ccc(-c4cccc(F)c4)cn3)[C@]2(C)CC[C@H]1O (stereo partly drawn) [Compound I-3] | 
4 | 8.76 | C[C@]1(CO)[C@H]2CCC(CO)[C@@H](CCc3ccc(-c4cccc(C(F)(F)F)c4)cn3)[C@]2(C)CC[C@H]1O (stereo partly drawn) [Compound I-4] | 
5 | 3.52 | C[C@@]1(C=O)[C@H](O)CC[C@@]2(C)[C@H](/C=C/c3ccc(-c4cccc(F)c4)cn3)C3(CC[C@H]12)CO3 (stereo partly drawn) [Compound I-7] | 1.02
6 | 8.71 | CC(C)c1ccc(Cn2ccc3c4c(N)nc(NC5CC5)nc4ccc32)cc1 [SCH79797, reference compound] | 0.95

Row | Compound | IC50 [µM] | Slope
7 | COC[C@@]1(C)[C@H]2CCC3(CO3)[C@@H](/C=C/c3ccc(-c4cccc(F)c4)cn3)[C@]2(C)CC[C@H]1O (stereo partly drawn) [Compound I-5] | 7.07 | 2.59
8 | CO[C@@H]1CC[C@]2(C)[C@H](CCC3(CO3)[C@H]2/C=C/c2ccc(-c3cccc(F)c3)cn2)[C@]1(C)CO (stereo partly drawn) [Compound I-6] | 11 | 1.53
9 | C[C@@]12CC[C@@H](O)[C@@](C)(C(=O)O)[C@H]1CCC1(CO1)[C@H]2/C=C/c1ccc(-c2cccc(F)c2)cn1 (stereo partly drawn) [Compound I-8] | 31.6 | 1.97
10 | COC(=O)[C@]1(C)[C@H](O)CC[C@@]2(C)[C@H](/C=C/c3ccc(-c4cccc(F)c4)cn3)C3(CC[C@@H]21)CO3 (stereo partly drawn) [Compound I-9] | 0.66 | 0.97
11 | C[C@@]1(C(=O)O)C(=O)CC[C@@]2(C)[C@H](/C=C/c3ccc(-c4cccc(F)c4)cn3)C3(CC[C@H]12)CO3 (stereo partly drawn) [Compound I-10] | 19.7 | 1.23
